# Measured values published in patent publication US20260258064A1 (SIRONAX LTD., priority 2023, published 2026).
# Target: T1, SARM1 (50-724) (Homo sapiens, UniProt Q6SZW1)
# T1 construct: Purified SARM1 (50-724) with a final concentration of 2 nM was pre-incubated with a test compound
# T1 sequence (Q6SZW1 50-724): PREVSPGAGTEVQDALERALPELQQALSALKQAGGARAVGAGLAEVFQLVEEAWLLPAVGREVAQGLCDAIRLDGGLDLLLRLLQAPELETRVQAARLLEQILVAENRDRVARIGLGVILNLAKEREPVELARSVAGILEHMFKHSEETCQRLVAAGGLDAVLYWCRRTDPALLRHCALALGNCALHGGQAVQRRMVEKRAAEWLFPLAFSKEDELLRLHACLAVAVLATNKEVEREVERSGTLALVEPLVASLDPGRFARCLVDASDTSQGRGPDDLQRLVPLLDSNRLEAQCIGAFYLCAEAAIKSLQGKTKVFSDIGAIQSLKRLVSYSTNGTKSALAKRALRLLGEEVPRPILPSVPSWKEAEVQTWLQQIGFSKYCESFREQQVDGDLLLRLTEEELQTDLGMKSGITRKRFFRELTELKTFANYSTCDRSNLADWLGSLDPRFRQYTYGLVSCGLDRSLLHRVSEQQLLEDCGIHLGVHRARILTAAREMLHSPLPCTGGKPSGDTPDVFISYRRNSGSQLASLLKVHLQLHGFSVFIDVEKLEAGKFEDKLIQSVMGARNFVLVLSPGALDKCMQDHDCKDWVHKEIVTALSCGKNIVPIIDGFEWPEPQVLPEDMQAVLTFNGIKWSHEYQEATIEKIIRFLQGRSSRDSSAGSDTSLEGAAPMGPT
# Assay: SARM1 (50-724) enzymatic assay (LC-MS/MS)
# Format: biochemical
# Settings: Purified SARM1 (50-724) 2 nM, NMN as activator, NAD+ as substrate, 1 h at room temperature, read-out: IC50 (SARM1 inhibitory activity)
# Method: An enzymatic assay was performed in a 384-well plate using Dulbecco's phosphate-buffered saline (PBS) as the reaction buffer. Purified SARM1 (50-724) with a final concentration of 2 nM was pre-incubated with a test compound at […] final assay concentration for 15 min at room temperature. The reaction was initiated by adding a mixture of […] nicotinamide mononucleotide (NMN) as activator and […] NAD^+ as substrate. After 1 h of incubation at room temperature, the reaction was terminated with 10 times volume of 70% acetonitrile, and then centrifuged at 3800 rpm for 10 min. The samples were analyzed using LC-MS/MS after diluted to a proper concentration by 10 mM ammonium acetate (pH 9.75).
# In Table 2, activity is provided as follows: A: IC50≤100 nM; B: 100 nM<IC50≤500 nM; C: 500 nM<IC50≤1000 nM; D: IC50>1000 nM.
row,SMILES,IC50 [µM]
1,"Fc1cccc(-n2c(CCc3nccs3)nnc2-c2nc3cc(C(F)(F)F)ccc3[nH]2)c1Cl [Compound 419, 2-(2-(4-(2-chloro-3-fluorophenyl)-5-(5-(trifluoromethyl)-1H-benzo[d]imidazol-2-yl)-4H-1,2,4-triazol-3-yl)ethyl)thiazole]",0.1 to 0.5
2,"FC(F)(F)c1ccc2[nH]c(C3=C(c4ccccc4Cl)CSC3)nc2c1 [Compound 335, 2-(4-(2-chlorophenyl)-2,5-dihydrothiophen-3-yl)-5-(trifluoromethyl)-1H-benzo[d]imidazole]",0.5 to 1
3,"FC(F)(F)c1ccncc1-n1cnnc1-c1nc2cc(C34COC(C3)C4)ccc2[nH]1 [Compound 362, 5-(2-oxabicyclo[2.1.1]hexan-4-yl)-2-[4-[4-(trifluoromethyl)-3-pyridyl]-1,2,4-triazol-3-yl]-1H-benzimidazole]",0.1 to 0.5
4,"O=S1(=O)CC(c2nc3cc(C(F)(F)F)ccc3[nH]2)=C(c2ccccc2Cl)C1 [Compound 337, 3-(2-chlorophenyl)-4-(5-(trifluoromethyl)-1H-benzo[d]imidazol-2-yl)-2,5-dihydrothiophene 1,1-dioxide]",> 1
5,"NC(=O)Cc1nnc(-c2nc3cc(C(F)(F)F)ccc3[nH]2)n1-c1cccc(Cl)c1Cl [Example 122, 2-[4-(2,3-Dichlorophenyl)-5-[5-(trifluoromethyl)-1H-benzimidazol-2-yl]-1,2,4-triazol-3-yl]acetamide]",≤ 0.1
6,"FC(F)(F)c1ccc2[nH]c(-c3nncn3-c3cn4nccc4cc3C(F)(F)F)nc2c1 [Compound 311, 5-(trifluoromethyl)-2-(4-(5-(trifluoromethyl)pyrazolo[1,5-a]pyridin-6-yl)-4H-1,2,4-triazol-3-yl)-1H-benzo[d]imidazole]",0.1 to 0.5
7,"CNC(=O)Cc1nnc(-c2nc3cc(C(F)(F)F)ccc3[nH]2)n1-c1cccc(Cl)c1Cl [Compound 143, 2-(4-(2,3-Dichlorophenyl)-5-(5-(trifluoromethyl)-1H-benzo[d]imidazol-2-yl)-4H-1,2,4-triazol-3-yl)-N-methylacetamide]",≤ 0.1
8,"Fc1cc(C2CC2(F)F)cc2nc(-c3nncn3-c3cnccc3C(F)(F)F)[nH]c12 (stereo not shown) [Compound 298, 5-(2,2-difluorocyclopropyl)-7-fluoro-2-(4-(4-(trifluoromethyl)pyridin-3-yl)-4H-1,2,4-triazol-3-yl)-1H-benzo[d]imidazole]",≤ 0.1
9,FC(F)(F)c1ccc2[nH]c(-c3nncn3-c3ccccc3Cl)nc2c1 [Example 105],≤ 0.1
10,"FC(F)(F)c1ccc2[nH]c(-c3nncn3-c3cnccc3C(F)(F)F)cc2n1 [Compound 292, 5-(trifluoromethyl)-2-(4-(4-(trifluoromethyl)pyridin-3-yl)-4H-1,2,4-triazol-3-yl)-1H-pyrrolo[3,2-b]pyridine]",≤ 0.1
11,"CS(=O)(=O)c1ccc(OC(F)(F)F)c(-n2cnnc2-c2nc3cc(C(F)(F)F)cc(F)c3[nH]2)c1 [Compound 217, 7-fluoro-2-(4-(5-(methylsulfonyl)-2-(trifluoromethoxy)phenyl)-4H-1,2,4-triazol-3-yl)-5-(trifluoromethyl)-1H-benzo[d]imidazole]",≤ 0.1
12,"CC(C#N)c1ccc2[nH]c(-c3nncn3-c3ccc(F)c(F)c3Cl)nc2c1 (stereo not shown) [Compound 152, 2-(2-(4-(2-chloro-3,4-difluorophenyl)-4H-1,2,4-triazol-3-yl)-1H-benzo[d]imidazol-5-yl)propanenitrile]",≤ 0.1
13,"Fc1cc(CC(F)(F)F)cc2nc(-c3nncn3-c3cnccc3C(F)(F)F)[nH]c12 [Compound 282, 7-fluoro-5-(2,2,2-trifluoroethyl)-2-(4-(4-(trifluoromethyl)pyridin-3-yl)-4H-1,2,4-triazol-3-yl)-1H-benzo[d]imidazole]",≤ 0.1
14,"Cc1cc(-c2cnccc2C(F)(F)F)c(-c2nc3cc(C(F)(F)F)ccc3[nH]2)nn1 [Compound 377, 2-(6-Methyl-4-(4-(trifluoromethyl)pyridin-3-yl)pyridazin-3-yl)-5-(trifluoromethyl)-1H-benzo[d]imidazole]",0.1 to 0.5
15,"O=c1[nH]nc(-c2cccc(Cl)c2Cl)n1-c1nc2cc(C(F)(F)F)ccc2[nH]1 [Compound 30, 3-(2,3-Dichlorophenyl)-4-[5-(trifluoromethyl)-1H-benzimidazol-2-yl]-1H-1,2,4-triazol-5-one]",> 1
16,FC(F)(F)c1ccc2[nH]c(-c3cnsc3-c3cccc(Cl)c3Cl)nc2c1 [Example 92],0.1 to 0.5
17,"Clc1cccc(-n2cnnc2-c2nc3cc(-c4ccn[nH]4)ccc3[nH]2)c1Cl [Example 68, 2-(4-(2,3-dichlorophenyl)-4H-1,2,4-triazol-3-yl)-5-(1H-pyrazol-5-yl)-1H-benzo[d]imidazole]",≤ 0.1

# The next lines start with the values.
row,IC50 [µM],SMILES
1,≤ 0.1,"FC1(F)CN(Cc2nnc(-c3nc4cc(C(F)(F)F)ccc4[nH]3)n2-c2cccc(Cl)c2Cl)C1 [Compound 157, 2-(4-(2,3-dichlorophenyl)-5-((3,3-difluoroazetidin-1-yl)methyl)-4H-1,2,4-triazol-3-yl)-5-(trifluoromethyl)-1H-benzo[d]imidazole]"
2,≤ 0.1,"OCc1cccc(OC(F)(F)F)c1-n1cnnc1-c1nc2cc(C(F)(F)F)ccc2[nH]1 [Compound 261, (3-(trifluoromethoxy)-2-(3-(5-(trifluoromethyl)-1H-benzo[d]imidazol-2-yl)-4H-1,2,4-triazol-4-yl)phenyl)methanol]"
3,≤ 0.1,FC(F)(F)Oc1cnccc1-n1cnnc1-c1nc2cc(C(F)(F)F)ccc2[nH]1 [Compound 190]
4,≤ 0.1,"CN(c1cc(F)c2[nH]c(-c3nncn3-c3cnccc3C(F)(F)F)nc2c1)c1nccs1 [Compound 417, N-(7-fluoro-2-(4-(4-(trifluoromethyl)pyridin-3-yl)-4H-1,2,4-triazol-3-yl)-1H-benzo[d]imidazol-5-yl)-N-methylthiazol-2-amine]"
5,≤ 0.1,"Fc1cc(C2CC2)cc2nc(-c3nncn3-c3cnccc3C(F)(F)F)[nH]c12 [Compound 270, 5-cyclopropyl-7-fluoro-2-(4-(4-(trifluoromethyl)pyridin-3-yl)-4H-1,2,4-triazol-3-yl)-1H-benzo[d]imidazole]"
6,≤ 0.1,FC(F)(F)c1ccc2[nH]c(-c3nncn3-c3nsc(Cl)c3Cl)nc2c1 [Example 106]
7,≤ 0.1,"N#CC1(c2ccc3[nH]c(-c4nncn4-c4cccc(F)c4Cl)nc3c2)COC1 [Compound 180, 3-(2-(4-(2-chloro-3-fluorophenyl)-4H-1,2,4-triazol-3-yl)-1H-benzo[d]imidazol-5-yl)oxetane-3-carbonitrile]"
8,≤ 0.1,"FC(F)(F)c1ccc2[nH]c(-c3nncn3-c3cnccc3C(F)(F)F)c(-c3ccccn3)c2c1 [Compound 390, 3-(pyridin-2-yl)-5-(trifluoromethyl)-2-(4-(4-(trifluoromethyl)pyridin-3-yl)-4H-1,2,4-triazol-3-yl)-1H-indole]"
9,≤ 0.1,"FC(F)(F)c1ccc2[nH]c(-c3nncn3-c3nnccc3C(F)(F)F)nc2c1 [Compound 429, 5-(trifluoromethyl)-2-(4-(4-(trifluoromethyl)pyridazin-3-yl)-4H-1,2,4-triazol-3-yl)-1H-benzo[d]imidazole]"
10,≤ 0.1,"CC(C)(O)Cc1nnc(-c2nc3cc(C(F)(F)F)ccc3[nH]2)n1-c1cccc(F)c1Cl [Compound 388, 1-(4-(2-chloro-3-fluorophenyl)-5-(5-(trifluoromethyl)-1H-benzo[d]imidazol-2-yl)-4H-1,2,4-triazol-3-yl)-2-methylpropan-2-ol]"
11,≤ 0.1,"CC(C)(O)c1cc(F)c2[nH]c(-c3nnccc3-c3cnccc3C(F)(F)F)nc2c1 [Compound 418, 2-(4-fluoro-2-(4-(4-(trifluoromethyl)pyridin-3-yl)pyridazin-3-yl)-1H-benzo[d]imidazol-6-yl)propan-2-ol]"
12,≤ 0.1,"NC(=O)COc1ccc(OC(F)(F)F)c(-n2cnnc2-c2nc3cc(C(F)(F)F)ccc3[nH]2)c1 [Compound 249, 2-(4-(trifluoromethoxy)-3-(3-(5-(trifluoromethyl)-1H-benzo[d]imidazol-2-yl)-4H-1,2,4-triazol-4-yl)phenoxy)acetamide]"
13,≤ 0.1,Fc1cc(C23COCC2C3)cc2nc(-c3nncn3-c3cnccc3C(F)(F)F)[nH]c12 (stereo not shown) [Compound 374]
14,≤ 0.1,"CC(F)(F)c1ccncc1-n1cnnc1-c1nc2cc(C(F)(F)F)ccc2[nH]1 [Compound 260, 2-(4-(4-(1,1-Difluoroethyl)pyridin-3-yl)-4H-1,2,4-triazol-3-yl)-5-(trifluoromethyl)-1H-benzo[d]imidazole]"
